Measured values published in PubChem BioAssay (NCI).
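Each compound was tested at five concentrations against cells in 96-well plates for 48 hours. Abbreviation: GI50, concentration required for 50% inhibition of growth. Definition used: TGI = concentration required for complete inhibition of growth.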

Columns and labels:
Experiment in all cases: NCI-60 cell line screen, 48 h
BT-549 breast = test system: BT-549 breast
EKVX NSCLC = test system: EKVX NSCLC
HL-60(TB) leukemia = test system: HL-60(TB) leukemia
HT29 colon = test system: HT29 colon
OVCAR-4 ovarian = test system: OVCAR-4 ovarian
OVCAR-8 ovarian = test system: OVCAR-8 ovarian
SF-268 CNS = test system: SF-268 CNS
SNB-19 CNS = test system: SNB-19 CNS

SMILES | GI50 (BT-549 breast) [µM] | TGI (BT-549 breast) [µM] | GI50 (EKVX NSCLC) [µM] | TGI (EKVX NSCLC) [µM] | GI50 (HL-60(TB) leukemia) [µM] | TGI (HL-60(TB) leukemia) [µM] | GI50 (HT29 colon) [µM] | TGI (HT29 colon) [µM] | GI50 (OVCAR-4 ovarian) [µM] | TGI (OVCAR-4 ovarian) [µM] | GI50 (OVCAR-8 ovarian) [µM] | TGI (OVCAR-8 ovarian) [µM] | GI50 (SF-268 CNS) [µM] | TGI (SF-268 CNS) [µM] | GI50 (SNB-19 CNS) [µM] | TGI (SNB-19 CNS) [µM]
O=C(/C=C/c1cccc([N+](=O)[O-])c1)c1ccc(O)c(CN2CCN(c3cc4c(cc3F)c(=O)c(C(=O)O)cn4C3CC3)CC2)c1 | 1.54 | 3.31 | 1.71 | 3.32 | 2.24 | 6.58 | 2.44 | 6.25 | 1.61 | 3.07 | 2.52 | 8.77 | 2.15 | 5.58 | 1.34 | 2.79
Nc1nc2ccc3[nH]ncc3c2c2c1CCCC2 | 1.38 | 3.34 | 1.54 | 5.38 | 2.31 | 5.72 | 1.88 | 11.8 | 3.6 | 7.92 | 2.14 | 18.8 | 1.88 | 6.18 | 2.64 | 10.8
COc1c2c(c(CC=C(C)C)c3oc(=O)c(-c4ccc(O)cc4)c(O)c13)OC(C)(C)C=C2 | – | > 100 | – | 95.8 | – | 51 | – | > 100 | – | 58 | – | > 100 | – | 41 | – | > 100
COc1cc(-c2csc(NC(=O)Nc3cc(C(F)(F)F)cc(C(F)(F)F)c3)n2)cc(OC)c1OC | 2.38 | 7.84 | 2.38 | 13.9 | 2.43 | 6.89 | 2.67 | 11.2 | 2.68 | 17 | 2.73 | 13 | 3.64 | 15.7 | 3.56 | 15.7
COc1ccc2c(c1)c1nc3cc(C)c(C)cc3nc1n2CCN(C)C | 1.7 | 3.49 | 1.16 | 2.85 | 0.992 | 3.36 | 0.529 | 1.94 | 1.03 | 2.43 | – | – | 1.42 | 3.57 | 0.678 | 2.32
COc1cc2c(cc1OC)C(CC1(O)CCCCC1)N(S(=O)(=O)c1ccc(C)cc1)CC2 (centres undefined) | > 10 | > 10 | – | – | – | – | > 10 | > 10 | > 10 | > 10 | > 10 | > 10 | > 10 | > 10 | > 10 | > 10
CN1C(=O)C(=Cc2cn(Cc3ccccc3)c3ccccc23)C(=O)N(C)C1=O | 56.5 | > 100 | 35.8 | > 100 | > 43.4 | > 100 | > 78.8 | > 100 | 5.85 | > 100 | 35.8 | > 82.6 | > 86.6 | > 100 | > 100 | > 100
C[C@@H](NC(=O)[C@@H](CC(=O)N1CCC(N2CCCCC2)CC1)N1C(=O)[C@@H](N2C(=O)OC[C@@H]2c2ccccc2)[C@H]1/C=C/c1cccc(Cl)c1)c1ccccc1 | 5.14 | 18 | 3.79 | 18 | 2.21 | 4.87 | 2.78 | 7.95 | 10.5 | 24.8 | 4.3 | 16.6 | 2.31 | 7.21 | 2.77 | 7.57
COc1ccc(C2=Nc3c/c(=C\c4c(O)[nH]c5ccc(Cl)cc45)ccc3=N2)cc1 | – | – | – | – | 1.51 | 3.94 | – | – | 1.8 | 3.34 | 2.05 | 4.7 | 2.09 | 5.47 | 1.84 | 5.85
COc1ccc2c(c1)CCc1[nH]nc(-c3cc(OC)c(OC)c(OC)c3)c1-2 | < 0.01 | 10.6 | – | – | – | – | < 0.01 | 10.1 | < 0.01 | 56.5 | < 0.01 | 15.4 | < 0.01 | 26.8 | < 0.01 | 46.2
O=C(O)c1ccc([S-])cc1.[Au+].c1ccc(CN2[CH-]N(Cc3ccccc3)C(c3ccccc3)=C2c2ccccc2)cc1 | 0.318 | 1.42 | 0.274 | 1.53 | 0.321 | 1.29 | 0.434 | 1.58 | 0.373 | 1.3 | 0.417 | 1.66 | – | – | – | –
O=CC(Br)C(Br)c1ccccc1 (centres undefined) | 2.77 | 8.47 | – | – | 0.462 | 2.32 | 1.71 | 3.19 | 1.69 | 3.14 | 2.95 | 10.2 | 4.2 | 16 | 12.8 | 26.2
O=C1C(Cl)=C(Nc2cccc(O)c2)C(=O)N1Cc1ccc(Cl)cc1 | 2.54 | 16.6 | 13.6 | 48.6 | 0.993 | 11 | – | – | 11.2 | > 100 | 3.65 | 44.4 | 4.26 | 18.6 | 2.64 | 23.5
CC1(C)N=C(N)N=C(N)N1c1ccc(CCc2ccc(Cl)cc2S(=O)(=O)F)c(Cl)c1 | – | – | 11.3 | > 100 | 13 | 48.1 | – | – | 9.09 | 84.5 | 7.2 | 69.1 | 4.21 | 53.5 | 7.95 | > 100
CCOc1ccc2nc(-c3cccc(OCC(=O)NC(C)C)c3)nc(Nc3ccc(-c4cn[nH]c4)cc3)c2c1 | – | – | 1.22 | 8.34 | 0.661 | 3.41 | 0.751 | 5.09 | 1.53 | 3.52 | 0.586 | 4.76 | 1.35 | 7 | 0.598 | 3.76
C[C@]1(C(=O)O)N[C@H](C(=O)O)CS1 | – | – | – | – | – | – | > 1000 | > 1000 | > 1000 | > 1000 | > 1000 | > 1000 | > 1000 | > 1000 | > 1000 | > 1000
CC(=O)C1COC(O)C1C (centres undefined) | – | > 100 | – | > 100 | – | 39.7 | – | > 100 | – | – | – | 46 | – | 49.9 | – | > 100
